Values joined by “and” are separate entries in the source; they are usually repeats but may differ in a detail not shown here. Identical values can stand only once. Counter-ions that a name gives are not always drawn. Like-named read-outs stand apart in the source and are kept apart here. One block for each compound: values may come before it.
How the values were obtained:
RelA = RelA (Homo sapiens, UniProt Q04206); assay: DSE-FRET RelA–DNA binding inhibition; assay type: biochemical; settings: for Hit Judgement of: RelA: 1 = judged hit after retest
p52 = target: T1, p52 (Homo sapiens, UniProt Q00653); assay: DSE-FRET p52–DNA binding inhibition; assay type: biochemical; design: p52 Retest % Inhibition Run2 / p52 Retest % Inhibition Avg. / Kinetic assay p52 Inhibition % ΔRFU(60 min-0 min) / p52 HTS % Inhibition / p52 Retest % Inhibition Run1: dose or concentration left out as unconfirmed; settings: for Hit Judgement of: p52: 1 = judged hit after retest
T1 sequence (Q00653 1-454 limits assumed): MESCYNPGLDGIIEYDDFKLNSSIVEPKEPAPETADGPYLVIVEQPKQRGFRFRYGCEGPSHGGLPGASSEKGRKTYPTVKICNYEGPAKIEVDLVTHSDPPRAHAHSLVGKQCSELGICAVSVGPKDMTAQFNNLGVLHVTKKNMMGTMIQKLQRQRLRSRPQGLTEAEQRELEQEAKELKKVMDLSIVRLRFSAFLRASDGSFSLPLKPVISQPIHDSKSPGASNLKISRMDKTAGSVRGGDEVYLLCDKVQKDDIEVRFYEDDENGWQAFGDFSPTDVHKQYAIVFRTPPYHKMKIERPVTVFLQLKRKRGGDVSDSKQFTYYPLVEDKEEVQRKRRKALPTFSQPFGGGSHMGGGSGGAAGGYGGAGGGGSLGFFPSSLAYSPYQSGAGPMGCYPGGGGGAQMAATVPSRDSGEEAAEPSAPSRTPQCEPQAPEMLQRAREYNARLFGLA

[1] = HTS, known drugs, 10 µM, read-out: RelA HTS % Inhibition @ 10 µM
[2] = kinetic assay, 60 min-0 min, 10 µM, read-out: Kinetic assay @ 10 µM RelA % Inhibition ΔRFU(60 min-0 min)
[3] = retest, Run1, 10 µM, read-out: RelA Retest % Inhibition @ 10 µM Run1
[4] = retest, Run2, 10 µM, read-out: RelA Retest % Inhibition @ 10 µM Run2
[5] = retest, average of Run1 and Run2, 10 µM, read-out: RelA Retest % Inhibition @ 10 µM Avg.
[6] = HTS, known drugs, 10 µM, read-out: p52 HTS % Inhibition @ 10 µM
[7] = kinetic assay, 60 min-0 min, 10 µM, read-out: Kinetic assay @ 10 µM p52 % Inhibition ΔRFU(60 min-0 min)
[8] = retest, Run1, 10 µM, read-out: p52 Retest % Inhibition @ 10 µM Run1
[9] = retest, Run2, 10 µM, read-out: p52 Retest % Inhibition @ 10 µM Run2
[10] = retest, average of Run1 and Run2, 10 µM, read-out: p52 Retest % Inhibition @ 10 µM Avg.
[11] = HTS, 5 µg/mL, NPDepo hits, read-out: RelA HTS % Inhibition @ 5 µg/mL
[12] = Retest Run1, 5 µg/mL, read-out: RelA Retest % Inhibition @ 5 µg/mL Run1
[13] = Retest Run2, 5 µg/mL, read-out: RelA Retest % Inhibition @ 5 µg/mL Run2
[14] = Retest average of Run1 and Run2, 5 µg/mL, read-out: RelA Retest % Inhibition @ 5 µg/mL Avg.
[15] = kinetic assay, 5 µg/mL, ΔRFU 60 min-0 min, read-out: Kinetic assay @ 5 µg/mL RelA Inhibition % ΔRFU(60 min-0 min)
[16] = HTS, 5 µg/mL, NPDepo hits, read-out: p52 HTS % Inhibition @ 5 µg/mL
[17] = Retest Run1, 5 µg/mL, read-out: p52 Retest % Inhibition @ 5 µg/mL Run1
[18] = Retest Run2, 5 µg/mL, read-out: p52 Retest % Inhibition @ 5 µg/mL Run2
[19] = Retest average of Run1 and Run2, 5 µg/mL, read-out: p52 Retest % Inhibition @ 5 µg/mL Avg.
[20] = kinetic assay, 5 µg/mL, ΔRFU 60 min-0 min, read-out: Kinetic assay @ 5 µg/mL p52 Inhibition % ΔRFU(60 min-0 min)

RelA, sequence (Q04206 19-306 limits assumed): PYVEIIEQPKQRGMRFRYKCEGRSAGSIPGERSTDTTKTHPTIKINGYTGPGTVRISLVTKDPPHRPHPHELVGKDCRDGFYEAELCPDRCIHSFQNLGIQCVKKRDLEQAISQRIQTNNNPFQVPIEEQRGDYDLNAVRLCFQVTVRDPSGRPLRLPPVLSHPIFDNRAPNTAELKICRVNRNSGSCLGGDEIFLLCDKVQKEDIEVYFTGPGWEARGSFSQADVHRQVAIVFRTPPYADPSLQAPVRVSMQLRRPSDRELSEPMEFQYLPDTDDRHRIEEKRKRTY

Hit Judgement of: RelA (RelA): 1
inhibition at 5 µg/mL (RelA; [11]): 52.5%
inhibition at 5 µg/mL (RelA; [12]): 43.2%
inhibition at 5 µg/mL (RelA; [13]): 47.5%
inhibition at 5 µg/mL (RelA; [14]): 45.3%
inhibition at 5 µg/mL (RelA; [15]): 15%
Hit Judgement of: p52 (p52): 1
inhibition at 5 µg/mL (p52; [16]): 4.4%
inhibition at 5 µg/mL (p52; [17]): 14.9%
inhibition at 5 µg/mL (p52; [18]): 16.2%
inhibition at 5 µg/mL (p52; [19]): 15.6%
inhibition at 5 µg/mL (p52; [20]): 6%
Structure (SMILES): O=C1C=CC(=C(c2ccc(O)c(O)c2)c2ccccc2S(=O)(=O)O)C=C1O (mixture of isomers) [Pyrocatechol violet]

Hit Judgement of: RelA (RelA): 1
inhibition at 5 µg/mL (RelA; [11]): 87.4%
inhibition at 5 µg/mL (RelA; [12]): 74.5%
inhibition at 5 µg/mL (RelA; [13]): 85.1%
inhibition at 5 µg/mL (RelA; [14]): 79.8%
inhibition at 5 µg/mL (RelA; [15]): 73%
Hit Judgement of: p52 (p52): 1
Structure (SMILES): O=C(O)c1cc(O)c2c(c1)[C@@H]([C@H]1c3cc(C(=O)O)cc(O)c3C(=O)c3c(O[C@@H]4O[C@H](CO)[C@@H](O)[C@H](O)[C@H]4O)cccc31)c1cccc(O[C@@H]3O[C@H](CO)[C@@H](O)[C@H](O)[C@H]3O)c1C2=O [Sennoside B]

inhibition at 10 µM (RelA; [1]): 91.4%
inhibition at 10 µM (RelA; [2]): -4.46%
inhibition at 10 µM (RelA; [3]): 99.3%
inhibition at 10 µM (RelA; [4]): 109%
inhibition at 10 µM (RelA; [5]): 104%
inhibition at 10 µM (p52; [6]): 74.5%
inhibition at 10 µM (p52; [7]): -3.67%
inhibition at 10 µM (p52; [8]): 94.6%
inhibition at 10 µM (p52; [9]): 104%
inhibition at 10 µM (p52; [10]): 99.1%
Structure (SMILES): CC[C@@]1(O)C(=O)OCc2c1cc1n(c2=O)Cc2cc3c(CN(C)C)c(O)ccc3nc2-1 [Topotecan]

inhibition at 5 µg/mL (RelA; [11]): 116%
inhibition at 5 µg/mL (RelA; [12]): 135%
inhibition at 5 µg/mL (RelA; [13]): 149%
inhibition at 5 µg/mL (RelA; [14]): 142%
inhibition at 5 µg/mL (RelA; [15]): -84%
Structure (SMILES): COc1cc(/C=C/C(=O)CC(=O)/C=C/c2ccc(O)c(OC)c2)ccc1O [Curcumin]

Further lines, the compound ahead of its results:

Structure (SMILES): COc1cccc2c1C(=O)c1c(O)c3c(c(O)c1C2=O)C[C@@](O)(C(=O)CO)C[C@@H]3O[C@H]1C[C@H](N)[C@@H](O)[C@H](C)O1 [EPIRUBICIN HYDROCHLORIDE]
inhibition at 10 µM (RelA; [1]): 82.2%
inhibition at 10 µM (RelA; [2]): -11%
inhibition at 10 µM (RelA; [3]): 77.3%
inhibition at 10 µM (RelA; [4]): 88.4%
inhibition at 10 µM (RelA; [5]): 82.9%
inhibition at 10 µM (p52; [6]): 88.4%
inhibition at 10 µM (p52; [7]): -11%
inhibition at 10 µM (p52; [8]): 77.2%
inhibition at 10 µM (p52; [9]): 88.8%
inhibition at 10 µM (p52; [10]): 83%

Structure (SMILES): Cc1ccc(C(=O)Nc2ccc(S(=O)(=O)O)c3cc(S(=O)(=O)O)cc(S(=O)(=O)O)c23)cc1NC(=O)c1cccc(NC(=O)Nc2cccc(C(=O)Nc3cc(C(=O)Nc4ccc(S(=O)(=O)O)c5cc(S(=O)(=O)O)cc(S(=O)(=O)O)c45)ccc3C)c2)c1 [Suramin, reference compound]
p52–DNA binding inhibition at 50 µM (p52; 96-well plates, 50 µM): inhibited both RelA–DNA and p52–DNA binding
suppression of p52–DNA binding (p52; HTS, 10 µM or 5 µg/mL): less than 10%

Structure (SMILES): COc1cccc2c1C(=O)c1c(O)c3c(c(O)c1C2=O)C[C@@](O)(C(C)=O)C[C@@H]3O[C@H]1C[C@H](N)[C@H](O)[C@H](C)O1 [Daunorubicin(Daunomycin)]
p52 HTS % Inhibition (p52; HTS, NPDepo hits): 78.5%
p52 Retest % Inhibition Run1 (p52; Retest Run1): 79.2%
p52 Retest % Inhibition Run2 (p52; Retest Run2): 84.3%
p52 Retest % Inhibition Avg. (p52; Retest average of Run1 and Run2): 81.7%
Kinetic assay p52 Inhibition % ΔRFU(60 min-0 min) (p52; kinetic assay, ΔRFU 60 min-0 min): -7%

Structure (SMILES): COc1cccc2c1C(=O)c1c(O)c3c(c(O)c1C2=O)C[C@@](O)(C(=O)CO)C[C@@H]3O[C@H]1C[C@H](N)[C@H](O)[C@H](C)O1 [Doxorubicin]
inhibition at 5 µg/mL (RelA; [11]): 70.5%
inhibition at 5 µg/mL (RelA; [12]): 69.2%
inhibition at 5 µg/mL (RelA; [13]): 78.3%
inhibition at 5 µg/mL (RelA; [14]): 73.8%
inhibition at 5 µg/mL (RelA; [15]): -12%

Structure (SMILES): COc1cccc2c1C(=O)c1c(O)c3c(c(O)c1C2=O)C[C@@](O)(C(C)=O)C[C@@H]3O[C@H]1C[C@H](N)[C@H](O)[C@H](C)O1 [Daunorubicin hydrochloride]
Kinetic assay p52 % Inhibition ΔRFU(60 min-0 min) (p52; kinetic assay, 60 min-0 min): -16% and -18%

Structure (SMILES): COc1cccc2c1C(=O)c1c(O)c3c(c(O)c1C2=O)C[C@@](O)(C(C)=O)C[C@@H]3O[C@H]1C[C@H](N)[C@H](O)[C@H](C)O1 [Daunomycin]
inhibition at 5 µg/mL (p52; [16]): 77.8%
inhibition at 5 µg/mL (p52; [17]): 92.7%
inhibition at 5 µg/mL (p52; [18]): 99%
inhibition at 5 µg/mL (p52; [19]): 95.9%
inhibition at 5 µg/mL (p52; [20]): -4.66%

From paper PMC7734590, “Identification of a Selective RelA Inhibitor Based on DSE-FRET Screening Methods” (International Journal of Molecular Sciences, 2020)
